Source: US8759031B2, “Type I polyketide synthase extender units” (priority 2007, dated 2014)
Like-named read-outs stand apart in the source and are kept apart here.

What was measured:
[1] = target: T1, ZmaJ (Bacillus cereus, UniProt Q7BQ71)
Protocol: ATP-PPi exchange assays were performed as previously described (Thomas et al., 2002, Chem. Biol. 9: 171-184). Reactions for amino acid specificity contained 70 nM ZmaJ and 1 mM of the following amino acids: L-Ser, L-2,3-diaminopropionate, L-Thr, Gly, and L-Cys. To determine the kinetic parameters of ZmaJ activation of L-Ser, 100 μL reactions containing 70 nM ZmaJ, 3.5 mM ATP, and varying concentrations of L-Ser (0.35 to 10 mM), in triplicate, were incubated for 10 min prior to stopping the reactions.

[2] = test system: N[C@@H](CO)C(=O)O; assay: purified protein, by the assay type; settings: other: 70 nM ZmaJ, 3.5 mM ATP, L-Ser 0.35 to 10 mM, 10 min, triplicate
Protocol: ZmaJ used in these assays was purified by an additional anion exchange chromatography step, which had no effect on seryl-ZmaH formation. […] Reactions for amino acid specificity contained 70 nM ZmaJ and 1 mM of the following amino acids: L-Ser, L-2,3-diaminopropionate, L-Thr, Gly, and L-Cys. To determine the kinetic parameters of ZmaJ activation of L-Ser, 100 μL reactions containing 70 nM ZmaJ, 3.5 mM ATP, and varying concentrations of L-Ser (0.35 to 10 mM), in triplicate, were incubated for 10 min prior to stopping the reactions. The reactions were in the linear range for enzyme concentration and less than 10% substrate-to-product conversion.

[3] = target: T1, ZmaJ; settings: 10 μM holo-ZmaD replaced holo-ZmaH; L-serine, ATP
Protocol: Reaction mixtures (130 or 260 μl) contained: 10 μM holo-ZmaH, 58 mM Tris pH 7.5, 8 mM MgCl2, 0.8 mM TCEP, 385 μM CoA, 0.8 μM Sfp, 250 μM L-serine, 5 mM ATP, and 1 μM ZmaJ. The reaction mixtures were incubated at 22° C. for 1 hour. To test whether seryl-ZmaD could be formed, 10 μM holo-ZmaD replaced the 10 μM holo-ZmaH in a 130 μL reaction mixture.
In this experiment, 100-200 μl of apo- or holo-ZmaH or 130-200 μl of aminoacylated ZmaH reaction products was injected, and products were separated using the same method as above.

[4] = test system: ZmaN; assay: Formation of glyceryl-ZmaD (ZmaN-catalyzed modification of holo-ACP, HPLC analysis); type: biochemical, Bacillus cereus; settings: 50 μM 3-PG, ATP
Sequence of ZmaN (as listed by the source, one chain of several): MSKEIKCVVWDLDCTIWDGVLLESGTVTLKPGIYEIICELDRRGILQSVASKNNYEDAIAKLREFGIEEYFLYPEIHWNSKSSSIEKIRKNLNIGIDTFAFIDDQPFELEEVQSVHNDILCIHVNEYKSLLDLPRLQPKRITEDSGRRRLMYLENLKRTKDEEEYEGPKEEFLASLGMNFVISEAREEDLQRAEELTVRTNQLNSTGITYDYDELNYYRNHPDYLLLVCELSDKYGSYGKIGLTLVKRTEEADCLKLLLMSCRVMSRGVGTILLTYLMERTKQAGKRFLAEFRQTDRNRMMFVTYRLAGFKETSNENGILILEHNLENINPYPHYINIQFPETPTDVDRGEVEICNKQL
Protocol: Control reactions were run without ZmaN, ATP, or with 2 U of 3-PGPK (Sigma). A time course comparing reactions with and without 3-PGPK contained 50 μM 3-PG, and the reactions were run for 0.5, 2.0, 5.0, and 10 min.
Reactions containing glyceraldehyde-3-phosphate (150 μl final volume) contained: 12.5 μM holo-ZmaD, 75 mM Tris pH 7.5, 10 mM MgCl2, 1 mM TCEP, 100 mM NaCl, 500 μM CoA, 1 μM Sfp, 250 μM DL-glyceraldehyde-3-phosphate (Sigma), 1 U GAPDH (Sigma), and 1 μM ZmaN were run for 40 min at 22° C. Control reactions without GAPDH, DL-glyceraldehyde-3-phosphate, Sfp, or ZmaN were run, as well as control reactions in which holo-ZmaH replaced holo-ZmaD.

T1 sequence (Q7BQ71 whole entry): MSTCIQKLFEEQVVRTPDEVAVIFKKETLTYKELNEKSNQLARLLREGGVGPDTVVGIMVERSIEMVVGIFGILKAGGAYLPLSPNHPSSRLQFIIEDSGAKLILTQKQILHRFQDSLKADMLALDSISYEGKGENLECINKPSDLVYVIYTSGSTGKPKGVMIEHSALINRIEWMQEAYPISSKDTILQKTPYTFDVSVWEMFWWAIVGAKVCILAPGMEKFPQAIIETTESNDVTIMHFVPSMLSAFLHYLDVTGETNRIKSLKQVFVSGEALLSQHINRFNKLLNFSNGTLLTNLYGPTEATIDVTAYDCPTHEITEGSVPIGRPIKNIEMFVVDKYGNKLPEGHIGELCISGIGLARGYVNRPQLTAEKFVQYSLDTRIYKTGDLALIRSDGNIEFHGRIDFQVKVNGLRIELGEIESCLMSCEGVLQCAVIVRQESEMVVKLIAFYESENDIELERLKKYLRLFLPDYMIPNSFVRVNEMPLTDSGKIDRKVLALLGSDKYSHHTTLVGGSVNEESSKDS

## C[C@@H](O)[C@H](N)C(=O)O [L-Thr]
[1]; 70 nM ZmaJ, 1 mM amino acid
  amino acid substrate specificity of ZmaJ (activation): activated only L-Ser

## NCC(=O)O [Gly]
[1]
  amino acid substrate specificity of ZmaJ (activation): activated only L-Ser

## L-2,3-diaminopropionate
[1]; 70 nM ZmaJ, 1 mM amino acid
  amino acid substrate specificity of ZmaJ (activation): activated only L-Ser

## N[C@@H](CO)C(=O)O [L-Ser, L-serine]
[1]; 70 nM ZmaJ, 1 mM amino acid
  amino acid substrate specificity of ZmaJ (activation): activated only L-Ser

## N[C@@H](CS)C(=O)O [L-Cys]
[1]; 70 nM ZmaJ, 1 mM amino acid
  amino acid substrate specificity of ZmaJ (activation): activated only L-Ser

## ZmaJ (Bacillus cereus)
[2]
  Km: 1800 ± 200 µM
  kcat: 0.7 ± 0.033 s⁻¹

B1: holo-ZmaD: acyl carrier protein ZmaD (SEQ ID NO:2) phosphopantetheinylated in vitro by Sfp (protein, listed as Bacillus cereus)
chain: MDNHEKIRQYIKKNLIIFNAEETIVANDENIFEKGYVNSLFAMQMLNFIETEFDIVVDNDELDIINFSTINNMVDLINKKKNGNFTV
modifications: phosphopantetheinylated
[3]
  aminoacylation by ZmaJ (seryl-ACP formation): not able to aminoacylate
[4]; with 3-PGPK
  rate of holo-ZmaD modification: 1.44 nmol/min
[4]; without 3-PGPK
  rate of holo-ZmaD modification: 0.08 nmol/min
